Results from patent US9975853B2, “Tetrahydroisoquinolinone derivatives and their use in the inhibition of the HSP70 protein” (Julius-Maximilians-Universitaet Wuerzburg, priority 2014, dated 2018).
Read-outs that look alike come from different tables or passages of the source. Peptide text beside a SMILES is read from it. * marks the point of attachment. Cbz = O=C(OCc1ccccc1)*; CH2F = FC*

Tests used:
[1] = tested on: INA-6; experiment: Cell viability assay (annexin V-FITC/propidium iodide, flow cytometry) in INA-6 multiple myeloma cells; type: cell-based, human; details: for EC50: INA-6 multiple myeloma cells, 72 hours of treatment, viable cell fraction, mean of at least three determinations, read-out: INA-6 EC50(±sdv)
Description: The effect of pharmacological Hsp70 inhibition on cell viability was analyzed after 72 hours of treatment in both non-malignant (mononuclear cells from the peripheral blood) and malignant lymphocytes (multiple myeloma cells). The mononuclear cells were separated from the peripheral blood of healthy donors by Ficoll-Hypaque density gradient centrifugation. The human cell line INA-6 represents a well-established model for multiple myeloma. The percentage of viable and apoptotic cell fractions was assessed using an annexin V-FITC/propidium iodide (PI) staining kit (Bender MedSystems, Vienna, Austria) according to manufacturer's instructions. In brief, cells were washed in PBS, incubated for 10 min in 100 ml binding buffer (10 mM HEPES/NaOH, pH 7.4, 140 mM NaCl, 2.5 mM CaCl2) containing 2.5 ml annexin V-FITC mix and 1 mg/ml propidium iodide (PI), subsequently diluted with 100 ml binding buffer and analyzed by flow cytometry (FACSCalibur/CELLQuest; Becton Dickinson, Heidelberg, Germany). Whereas viable cells are negative for both, annexin V-FITC and PI, early apoptotic cells show a positive annexin V-FITC staining, and cells in a late apoptotic stage which lose their membrane integrity additionally incorporate DNA-binding PI. To establish kill curves, concentrations of the tested compounds were titrated, and the measured viable cell fractions were further analyzed using the Prism Calculation Software (GraphPad Software Inc., La Jolla, USA).
In FIG. 2A Western blot analyses of caspases 9 and 3, and the caspase substrate PARP (upper panel), and viability analyses (lower panel) of INA-6 MM cells upon treatment with trans-7b for 24 hours are shown. INA-6 cells were either incubated with DMSO (as a solvent control) or with 0.6 μM of trans-7b, and additionally incubated either with DMSO or the pan-caspase inhibitor Z-VAD-FMK prior to analyses by Western or viability assessment (without Z-VAD-FMK co-treatment) by Annexin V/propidum iodide double staining. For Western analyses INA-6 cell pellets were dissolved in lysis buffer (20 mM HEPES (pH 7.9), 350 mM NaCl, 1 mM MgCl2, 0.5 mM EDTA, 0.1 mM EGTA, 1% NP40, 0.5 mM dithiothreiol (DTT), 1 mM Na3VO4, 0.1 mM PMSF and 1 μg/ml aprotinin). Lysates were cleared by centrifugation, measured by quantitative protein assay (Bio-Rad, München, Germany) and subjected to SDS gel electrophoresis. Proteins were transferred onto nitrocellulose membranes (Schleicher & Schuell, Dassel, Germany), incubated with antibodies specific for caspase 9, caspase 3 or PARP (Cell Signaling Technology, Frankfurt a.Main, Germany) according to standard procedures and visualized with secondary anti-rabbit horseradish peroxidase (HRP)-conjugated antibodies using an enhanced chemoluminescence detection system (ECL, Amersham, Freiburg, Germany). […] Annexin V/propidium iodide (PI) staining was performed using a fluorescein isothiocyanate (FITC) conjugated recombinant human annexin/propidium iodide kit (BenderMedSystems, Vienna, Austria) according to the manufacturer's instructions. INA-6 cells were washed in PBS, incubated for 15 minutes in 100 ml binding buffer (10 mM HEPES/NaOH, pH 7.4, 140 mM NaCl, 2.5 mM CaCl2) containing 2.5 mL annexin V-FITC mix and 1 mg/ml PI and analyzed by flow cytometry (FACSCalibur/CELLQuest; Becton Dickinson, Heidelberg, Germany). Whereas early apoptosis is characterized by positive annexin V-FITC staining reaction, cells in a late apoptotic stage lose their membrane integrity and additionally incorporate PI. Thus, the fraction of viable cells remains negative for both annexin V-FITC and PI. […] Based on the above described experiments also viability analyses of INA-6 in comparison with non-malignant PBMCs were performed choosing a longer incubation time (72 hours) as shown in FIG. 2B or C. Raw data of three independent experiments have been calculated to establish means, standard deviation and dose-effect curves of trans-7b.

[2] = tested on: caspases 9 and 3; experiment: Apoptosis assay: cleavage and activation of caspases 9 and 3, PARP cleavage in INA-6 cells (Western blot); type: cell-based, human; details: INA-6, Z-VAD-FMK 50 μM
Description: Apoptosis Assays. Hsp70-dependent prevention of apoptosis was investigated by analyses of the apoptosis-inducing factors (AIF) and of the caspases 9 and 3 in INA-6 cells. INA-6 cells were treated with 0.6 μM of compound trans-7b for 8 hours prior to analyze nuclear translocation of AIF. Staining of the nuclear protein lamin A was used as a loading control. […] Analysis of cleavage of the bona fide caspase substrate PARP served as a control for caspase activation. Co-treatment with the pan-caspase inhibitor Z-VAD-FMK (50 μM) was employed as another specificity control.
In FIG. 2A Western blot analyses of caspases 9 and 3, and the caspase substrate PARP (upper panel), and viability analyses (lower panel) of INA-6 MM cells upon treatment with trans-7b for 24 hours are shown. […] Lysates were cleared by centrifugation, measured by quantitative protein assay (Bio-Rad, München, Germany) and subjected to SDS gel electrophoresis. […] INA-6 cells were washed in PBS, incubated for 15 minutes in 100 ml binding buffer (10 mM HEPES/NaOH, pH 7.4, 140 mM NaCl, 2.5 mM CaCl2) containing 2.5 mL annexin V-FITC mix and 1 mg/ml PI and analyzed by flow cytometry (FACSCalibur/CELLQuest; Becton Dickinson, Heidelberg, Germany). […] Raw data of three independent experiments have been calculated to establish means, standard deviation and dose-effect curves of trans-7b.

SMILES | EC50 [1] | melting point | EC50 ([1]; Homo sapiens, INA-6, 72 h) | trans-7b-induced induction of apoptosis under co-incubation ([1]; INA-6, Z-VAD-FMK 50 μM with trans-7b 0.6 μM) | caspase activation and PARP cleavage under co-treatment with trans-7b [2]
COC(=O)C[C@H](NC(=O)[C@H](C)NC(=O)[C@@H](NC(=O)OCc1ccccc1)C(C)C)C(=O)CF [Z-VAD-FMK, reference compound] (Cbz-Val-Ala-Asp(OMe)-CH2F) |  |  |  | largely prevented | sufficiently inhibited
O=C(O)C1c2ccccc2C(=O)N(c2ccccc2)C1c1ccccc1 (stereo not drawn) [trans-5a, trans-2,3-Diphenyl-1-oxo-1,2,3,4-tetrahydroisoquinoline-4-carboxylic acid] |  | 226 to 229 °C | 6.9 µM |  | 
COc1ccc(C2C(C(=O)O)c3ccccc3C(=O)N2c2ccccc2)cc1 (stereo not drawn) [trans-5b, trans-3-(4-Methoxyphenyl)-1-oxo-2-phenyl-1,2,3,4-tetrahydroisoquinoline-4-carboxylic acid] |  | 171 to 173 °C | 1.3 µM |  | 

The next lines start with results.

EC50 [1] | melting point | EC50 ([1]; Homo sapiens, INA-6, 72 h) | SMILES | trans-7b-induced induction of apoptosis under co-incubation ([1]; INA-6, Z-VAD-FMK 50 μM with trans-7b 0.6 μM) | caspase activation and PARP cleavage under co-treatment with trans-7b [2]
> 100 µM | 232 to 233 °C |  | COc1ccc(C2C(C(=O)O)c3ccccc3C(=O)N2c2ccc(OC)cc2)cc1 (stereo not drawn) [cis-5d, cis-2,3-Bis(4-methoxyphenyl)-1-oxo-1,2,3,4-tetrahydroisoquinoline-4-carboxylic acid] |  | 
57 µM | 106 to 118 °C |  | COc1ccc(N2C(=O)c3ccccc3C(C(=O)O)C2c2ccccc2)cc1 (stereo not drawn) [trans-5c, trans-2-(4-Methoxyphenyl)-1-oxo-3-phenyl-1,2,3,4-tetrahydroisoquinoline-4-carboxylic acid] |  | 
10.1 µM | 201 to 203 °C |  | COc1ccc(C2C(C(=O)O)c3ccccc3C(=O)N2c2ccc(OC)cc2)cc1 (stereo not drawn) [trans-5d, trans-2,3-Bis(4-methoxyphenyl)-1-oxo-1,2,3,4-tetrahydroisoquinoline-4-carboxylic acid] |  | 
